# Source: ChEMBL document CHEMBL3885881, “DrugMatrix”
# Organism: Rattus norvegicus
# Experiment: DrugMatrix - Regimen: Daily Repeat
# Type: toxicity, organism-based, Sprague-Dawley
# Parameters: regimen Daily Repeat, gender Male, age 6-8 weeks
# Conditions: in vivo, po, route oral GAVAGE, vehicle 100 % WATER; for ABSOLUTE BASOPHIL / ABSOLUTE EOSINOPHIL / ABSOLUTE LYMPHOCYTE / ABSOLUTE MONOCYTE / ABSOLUTE SEGMENTED NEUTROPHIL / BASOPHIL / EOSINOPHIL / ERYTHROCYTE COUNT / HEMATOCRIT / HEMOGLOBIN / LEUKOCYTE COUNT / LYMPHOCYTE / MEAN CORPUSCULAR HEMOGLOBIN / MEAN CORPUSCULAR HEMOGLOBIN CONCENTRATION / MEAN CORPUSCULAR VOLUME / MONOCYTE / NEUTROPHIL / NUCLEATED RED BLOOD CELLS / PLATELET COUNT: tissue Blood; for ALANINE AMINOTRANSFERASE / ALBUMIN / ALKALINE PHOSPHATASE / ASPARTATE AMINOTRANSFERASE / BLOOD UREA NITROGEN / CARBON DIOXIDE / CHLORIDE / CHOLESTEROL / CREATINE PHOSPHOKINASE / CREATININE / GLUCOSE / LACTATE DEHYDROGENASE / LIPASE / PHOSPHORUS / POTASSIUM / SODIUM / TOTAL BILIRUBIN / TOTAL PROTEIN / URIC ACID: tissue Plasma
# [1] = 0 mg/kg, 72 h, dose level Control, time 3 day
# [2] = 0 mg/kg, 120 h, dose level Control, time 5 day
# [3] = 150 mg/kg, 72 h, dose level Low, time 3 day
# [4] = 150 mg/kg, 120 h, dose level Low, time 5 day
smiles,measurement,setting,value
Cc1c(N(C)CS(=O)(=O)[O-])c(=O)n(-c2ccccc2)n1C.[Na+] [DIPYRONE SODIUM],ABSOLUTE BASOPHIL,[1],0 CELLS/uL
same,ABSOLUTE EOSINOPHIL,[1],25 CELLS/uL
same,ABSOLUTE LYMPHOCYTE,[1],14357 CELLS/uL
same,ABSOLUTE MONOCYTE,[1],456.33 CELLS/uL
same,ABSOLUTE SEGMENTED NEUTROPHIL,[1],1461.67 CELLS/uL
same,BASOPHIL,[1],0%
same,EOSINOPHIL,[1],0.17%
same,ERYTHROCYTE COUNT,[1],5.85 x10E6/uL
same,HEMATOCRIT,[1],37.62%
same,HEMOGLOBIN,[1],13.87 G/DL
same,LEUKOCYTE COUNT,[1],16.3 x10E3/uL
same,LYMPHOCYTE,[1],88%
same,MEAN CORPUSCULAR HEMOGLOBIN,[1],23.68 pg
same,MEAN CORPUSCULAR HEMOGLOBIN CONCENTRATION,[1],36.88 G/DL
same,MEAN CORPUSCULAR VOLUME,[1],64.23 fL
same,MONOCYTE,[1],2.83%
same,NEUTROPHIL,[1],9%
same,NUCLEATED RED BLOOD CELLS,[1],0 /100WBC
same,PLATELET COUNT,[1],1125.33 x10E3/uL
same,ALANINE AMINOTRANSFERASE,[1],49.67 u/L
same,ALBUMIN,[1],4.23 G/DL
same,ALKALINE PHOSPHATASE,[1],400.83 u/L
same,ASPARTATE AMINOTRANSFERASE,[1],89.17 u/L
same,BLOOD UREA NITROGEN,[1],16 mg/dL
same,CARBON DIOXIDE,[1],31.83 mmol/L
same,CHLORIDE,[1],99 MEQ/L
same,CHOLESTEROL,[1],76 mg/dL
same,CREATINE PHOSPHOKINASE,[1],777.67 u/L
same,CREATININE,[1],0.22 mg/dL
same,GLUCOSE,[1],158.33 mg/dL
same,LACTATE DEHYDROGENASE,[1],186.17 u/L
same,LIPASE,[1],9.33 u/L
same,PHOSPHORUS,[1],12.95 mg/dL
same,POTASSIUM,[1],7.01 MEQ/L
same,SODIUM,[1],141.53 MEQ/L
same,TOTAL BILIRUBIN,[1],0.18 mg/dL
same,TOTAL PROTEIN,[1],6.08 G/DL
same,URIC ACID,[1],1.77 mg/dL
same,ABSOLUTE BASOPHIL,[2],0 CELLS/uL
same,ABSOLUTE EOSINOPHIL,[2],0 CELLS/uL
same,ABSOLUTE LYMPHOCYTE,[2],8994.5 CELLS/uL
same,ABSOLUTE MONOCYTE,[2],122.33 CELLS/uL
same,ABSOLUTE SEGMENTED NEUTROPHIL,[2],666.5 CELLS/uL
same,BASOPHIL,[2],0%
same,EOSINOPHIL,[2],0%
same,ERYTHROCYTE COUNT,[2],5.74 x10E6/uL
same,HEMATOCRIT,[2],35.17%
same,HEMOGLOBIN,[2],13.28 G/DL
same,LEUKOCYTE COUNT,[2],9.78 x10E3/uL
same,LYMPHOCYTE,[2],92.33%
same,MEAN CORPUSCULAR HEMOGLOBIN,[2],23.15 pg
same,MEAN CORPUSCULAR HEMOGLOBIN CONCENTRATION,[2],37.8 G/DL
same,MEAN CORPUSCULAR VOLUME,[2],61.27 fL
same,MONOCYTE,[2],1.33%
same,NEUTROPHIL,[2],6.33%
same,NUCLEATED RED BLOOD CELLS,[2],0 /100WBC
same,PLATELET COUNT,[2],1117 x10E3/uL
same,ALANINE AMINOTRANSFERASE,[2],47.83 u/L
same,ALBUMIN,[2],4.33 G/DL
same,ALKALINE PHOSPHATASE,[2],414.5 u/L
same,ASPARTATE AMINOTRANSFERASE,[2],77.5 u/L
same,BLOOD UREA NITROGEN,[2],17 mg/dL
same,CARBON DIOXIDE,[2],32.33 mmol/L
same,CHLORIDE,[2],99.33 MEQ/L
same,CHOLESTEROL,[2],76.33 mg/dL
same,CREATINE PHOSPHOKINASE,[2],363.67 u/L
same,CREATININE,[2],0.25 mg/dL
same,GLUCOSE,[2],173.5 mg/dL
same,LACTATE DEHYDROGENASE,[2],129.33 u/L
same,LIPASE,[2],9.17 u/L
same,PHOSPHORUS,[2],11.52 mg/dL
same,POTASSIUM,[2],5.73 MEQ/L
same,SODIUM,[2],143.85 MEQ/L
same,TOTAL BILIRUBIN,[2],0.2 mg/dL
same,TOTAL PROTEIN,[2],6.43 G/DL
same,URIC ACID,[2],0.97 mg/dL
same,ABSOLUTE BASOPHIL,[3],0 CELLS/uL
same,ABSOLUTE EOSINOPHIL,[3],55.67 CELLS/uL
same,ABSOLUTE LYMPHOCYTE,[3],16817.67 CELLS/uL
same,ABSOLUTE MONOCYTE,[3],567 CELLS/uL
same,ABSOLUTE SEGMENTED NEUTROPHIL,[3],1026.33 CELLS/uL
same,BASOPHIL,[3],0%
same,EOSINOPHIL,[3],0.33%
same,ERYTHROCYTE COUNT,[3],5.75 x10E6/uL
same,HEMATOCRIT,[3],36.5%
same,HEMOGLOBIN,[3],13.47 G/DL
same,LEUKOCYTE COUNT,[3],18.47 x10E3/uL
same,LYMPHOCYTE,[3],91%
same,MEAN CORPUSCULAR HEMOGLOBIN,[3],23.47 pg
same,MEAN CORPUSCULAR HEMOGLOBIN CONCENTRATION,[3],36.9 G/DL
same,MEAN CORPUSCULAR VOLUME,[3],63.5 fL
same,MONOCYTE,[3],3%
same,NEUTROPHIL,[3],5.67%
same,NUCLEATED RED BLOOD CELLS,[3],0 /100WBC
same,PLATELET COUNT,[3],1215.67 x10E3/uL
same,ALANINE AMINOTRANSFERASE,[3],44.67 u/L
same,ALBUMIN,[3],4.4 G/DL
same,ALKALINE PHOSPHATASE,[3],361 u/L
same,ASPARTATE AMINOTRANSFERASE,[3],86 u/L
same,BLOOD UREA NITROGEN,[3],16 mg/dL
same,CARBON DIOXIDE,[3],33 mmol/L
same,CHLORIDE,[3],100.33 MEQ/L
same,CHOLESTEROL,[3],87 mg/dL
same,CREATINE PHOSPHOKINASE,[3],700 u/L
same,CREATININE,[3],0.19 mg/dL
same,GLUCOSE,[3],142.33 mg/dL
same,LACTATE DEHYDROGENASE,[3],212 u/L
same,LIPASE,[3],9.33 u/L
same,PHOSPHORUS,[3],13.33 mg/dL
same,POTASSIUM,[3],6.6 MEQ/L
same,SODIUM,[3],143.13 MEQ/L
same,TOTAL BILIRUBIN,[3],0.2 mg/dL
same,TOTAL PROTEIN,[3],6.2 G/DL
same,URIC ACID,[3],1.67 mg/dL
same,ABSOLUTE BASOPHIL,[4],0 CELLS/uL
same,ABSOLUTE EOSINOPHIL,[4],0 CELLS/uL
same,ABSOLUTE LYMPHOCYTE,[4],8863.67 CELLS/uL
same,ABSOLUTE MONOCYTE,[4],61.67 CELLS/uL
same,ABSOLUTE SEGMENTED NEUTROPHIL,[4],541.33 CELLS/uL
same,BASOPHIL,[4],0%
same,EOSINOPHIL,[4],0%
same,ERYTHROCYTE COUNT,[4],5.85 x10E6/uL
same,HEMATOCRIT,[4],36.3%
same,HEMOGLOBIN,[4],13.67 G/DL
same,LEUKOCYTE COUNT,[4],9.47 x10E3/uL
same,LYMPHOCYTE,[4],93.33%
same,MEAN CORPUSCULAR HEMOGLOBIN,[4],23.37 pg
same,MEAN CORPUSCULAR HEMOGLOBIN CONCENTRATION,[4],37.63 G/DL
same,MEAN CORPUSCULAR VOLUME,[4],62 fL
same,MONOCYTE,[4],0.67%
same,NEUTROPHIL,[4],6%
same,NUCLEATED RED BLOOD CELLS,[4],0 /100WBC
same,PLATELET COUNT,[4],1342 x10E3/uL
same,ALANINE AMINOTRANSFERASE,[4],52.67 u/L
same,ALBUMIN,[4],4.23 G/DL
same,ALKALINE PHOSPHATASE,[4],379 u/L
same,ASPARTATE AMINOTRANSFERASE,[4],72.33 u/L
same,BLOOD UREA NITROGEN,[4],16.33 mg/dL
same,CARBON DIOXIDE,[4],34.67 mmol/L
same,CHLORIDE,[4],100.67 MEQ/L
same,CHOLESTEROL,[4],67 mg/dL
same,CREATINE PHOSPHOKINASE,[4],175.33 u/L
same,CREATININE,[4],0.2 mg/dL
same,GLUCOSE,[4],135 mg/dL
same,LACTATE DEHYDROGENASE,[4],123 u/L
same,LIPASE,[4],8.67 u/L
same,PHOSPHORUS,[4],12.43 mg/dL
same,POTASSIUM,[4],6.37 MEQ/L
same,SODIUM,[4],145.67 MEQ/L
same,TOTAL BILIRUBIN,[4],0.17 mg/dL
same,TOTAL PROTEIN,[4],6.17 G/DL
same,URIC ACID,[4],1.3 mg/dL
